Test [1] can be described thus: Binding affinity to 5'-ACGCGT-3' of DNA fragment (unknown origin) in Tris buffer at pH 7 at 0.05 uM by DNA footprinting.
Test [2] is described as follows: Binding affinity to 5'-ACGCGT-3' of hairpin DNA (unknown origin) in cacodylic acid buffer at pH 6.5 at 25 degC by SPR analysis. (In general: Surface plasmon resonance follows binding to a sensor surface in real time, without labels.)
Test [3] relates to Nucleic Acid. Put plainly: Binding affinity to 5'-AAATTT-3' of hairpin DNA (unknown origin) in cacodylic acid buffer at pH 6.5 assessed as change in melting temperature at 3 uM by thermal denaturation assay. The format is nucleic-acid assay.
For test [4], the system named is Nucleic Acid. Put plainly: Binding affinity to 5'-ATCGAT-3' of hairpin DNA (unknown origin) in cacodylic acid buffer at pH 6.5 assessed as change in melting temperature at 3 uM by thermal denaturation assay. The format is nucleic-acid assay.
Test [5] has as its system Nucleic Acid. Put plainly: Binding affinity to 5'-ATGCAT-3' of hairpin DNA (unknown origin) in cacodylic acid buffer at pH 6.5 assessed as change in melting temperature at 3 uM by thermal denaturation assay. The class given is nucleic-acid assay.
A short description of test [6]: Binding affinity to 5'-ACGCGT-3' DNA (unknown origin) at 80 uM at 25 degC by ITC method. A general note: ITC needs no label: the signal is the heat of the interaction.
For test [7], the system named is Nucleic Acid. As to the kind of experiment: Binding affinity to 5'-ACGCGT-3' of hairpin DNA (unknown origin) in cacodylic acid buffer at pH 6.5 assessed as change in melting temperature at 3 uM by thermal denaturation assay. The class given is nucleic-acid assay.
A short description of test [8]: Binding affinity to 5'-ATGCAT-3' of hairpin DNA (unknown origin) in cacodylic acid buffer at pH 6.5 at 25 degC by SPR analysis.
Test [9] is described as follows: Binding affinity to 5'-ATCGAT-3' of hairpin DNA (unknown origin) in cacodylic acid buffer at pH 6.5 at 25 degC by SPR analysis.
The nature of test [10]: Binding affinity to 5'-ACGCGT-3' of hairpin DNA (unknown origin) in 10 mM phosphate buffer at pH 6.2 at 1 mol equivalent of compound by CD titration method.
Test [11] can be described thus: Binding affinity to 5'-AAATTT-3' of DNA fragment (unknown origin) in Tris buffer at pH 7 at 20 uM by DNA footprinting.
Test [12] is described as follows: Binding affinity to 5'-AAATTT-3' DNA (unknown origin) at 80 uM at 25 degC by ITC method.
Test [13] is described as follows: Binding affinity to 5'-AAATTT-3' of 11 bp hairpin DNA oligonucleotide (unknown origin) in cacodylic acid buffer at pH 6.5 at 25 degC by SPR analysis.
The nature of test [14]: Binding affinity to 5'-AAATTT-3' of hairpin DNA (unknown origin) in cacodylic acid buffer at pH 6.5 at 25 degC by SPR analysis.
Test [15] is described as follows: Binding affinity to 5'-ATGCAT-3' of 11 bp hairpin DNA oligonucleotide (unknown origin) in cacodylic acid buffer at pH 6.5 at 25 degC by SPR analysis.
A short description of test [16]: Binding affinity to 5'-ATCGAT-3' of 11 bp hairpin DNA oligonucleotide (unknown origin) in cacodylic acid buffer at pH 6.5 at 25 degC by SPR analysis.
Test [17] in a line: Binding affinity to 5'-AAATTT-3' of hairpin DNA (unknown origin) in 10 mM phosphate buffer at pH 6.2 at 1 mol equivalent of compound by CD titration method.
Test [18] can be described thus: Binding affinity to 5'-AAATTT-3' of DNA fragment (unknown origin) in Tris buffer at pH 7 at 30 uM by DNA footprinting.
The nature of test [19]: Binding affinity to 5'-ATCGAT-3' DNA (unknown origin) at 80 uM at 25 degC by ITC method.
The nature of test [20]: Selectivity for 5'-TACGAT-3' of topoisomerase 2alpha promoter (unknown origin) over 5'-CTGCTTC-3' of topoisomerase 2alpha promoter (unknown origin).
A short description of test [21]: Binding affinity to 5'-CTGCTTC-3' of topoisomerase 2alpha promoter (unknown origin) in Tris buffer at pH 7 at 30 uM by DNA footprinting.
Test [22] can be described thus: Binding affinity to 5'-TACGAT-3' of topoisomerase 2alpha promoter (unknown origin) in Tris buffer at pH 7 at 10 uM by DNA footprinting.
Test [23] is described as follows: Binding affinity to 5'-ATCGAT-3' of hairpin DNA (unknown origin) in 10 mM phosphate buffer at pH 6.2 at 1 mol equivalent of compound by CD titration method.
Test [24] in a line: Binding affinity to 5'-ATGCAT-3' DNA (unknown origin) at 80 uM at 25 degC by ITC method.
The nature of test [25]: Binding affinity to 5'-ACGCGT-3' of DNA fragment (unknown origin) in Tris buffer at pH 7 at 1 uM by DNA footprinting.
A short description of test [26]: Binding affinity to 5'-ATGCAT-3' of hairpin DNA (unknown origin) in 10 mM phosphate buffer at pH 6.2 at 1 mol equivalent of compound by CD titration method.
Test [27] can be described thus: Binding affinity to 5'-ATGCAT-3' of DNA fragment (unknown origin) in Tris buffer at pH 7 at 1 uM by DNA footprinting.
The nature of test [28]: Binding affinity to 5'-ACTAGT-3' of DNA fragment (unknown origin) in Tris buffer at pH 7 at 1 uM by DNA footprinting.
Test [29] can be described thus: Binding affinity to 5'-ACGCGT-3' of 11 bp hairpin DNA oligonucleotide (unknown origin) in cacodylic acid buffer at pH 6.5 at 25 degC by SPR analysis.

Activity calls are given as the source filed them. No cut-off for these calls is given here. Some results are limits rather than exact numbers.

What is called ΔTm is the change in melting temperature against a reference sample. Turning to `CN(C)CCNC(=O)c1nc(NC(=O)c2cc(NC(=O)c3nc(NC=O)cn3C)cn2CCCN)cn1C`, the outcome in test [1], in test [6] and in [10] was Active. For the same compound, the Ke was 2.4 ×10⁸ /M in [2], 3.5 ×10⁷ /M in [8] and 1.7 ×10⁶ /M in test [9]. Besides, the ΔTm with Nucleic Acid [3] was 10 °C; in the test with Nucleic Acid [4], 11 °C; in the test on Nucleic Acid [5], 24 °C; in the test with Nucleic Acid [7] it was greater than 24 °C.
For `CN(C)CCCNC(=O)c1cc(NC(=O)c2cc(NC(=O)c3cc(NC=O)cn3C)cn2C)cn1C`, the result in test [11] and in test [12] was Active. The ΔTm in the test on Nucleic Acid [3] amounted to 9 °C; with Nucleic Acid [4], 1 °C. In addition, the Ke in [13] worked out at 3.2 ×10⁶ /M.
In the case of `CN(C)CCNC(=O)c1nc(NC(=O)c2cc(NC(=O)c3nc(NC=O)cn3C)cn2C)cn1C`, the Ke in test [14] turned out to be 5.3 ×10⁴ /M; in test [2], 5.4 ×10⁷ /M; in [15] it was 1.2 ×10⁷ /M; in test [16], 1 ×10⁵ /M. Further, the ΔTm in the test with Nucleic Acid [3] came to 1 °C; with Nucleic Acid [4], 1 °C; in the test on Nucleic Acid [5], 9 °C; in the test on Nucleic Acid [7] it was 9 °C. Also, in test [6], the result was Active.
On to `CN(C)CCCNC(=O)c1cc(NC(=O)c2cc(NC(=O)c3cc(NC=O)cn3C)cn2CCCN)cn1C`, for which the outcome in test [11], in [17], in [18] and in test [12] was Active. For the same compound, the Ke in test [14] worked out at 4.8 ×10⁷ /M. Moreover, the thermal shift (ΔTm) in the test with Nucleic Acid [3] stood at 25 °C; with Nucleic Acid [4], 10 °C; in the test with Nucleic Acid [7], 0 °C.
`CN(C)CCCNC(=O)c1cc(NC(=O)c2nc(NC(=O)c3cc(NC=O)cn3CCCN)cn2C)cn1C`: the thermal shift (ΔTm) turned out to be 10 °C in the test with Nucleic Acid [3], 0 °C in the test with Nucleic Acid [4] and 0 °C in the test on Nucleic Acid [7]. In addition, the outcome in [19], in [21], in test [22] and in test [23] was Active. In addition, the Selectivity ratio in test [20] amounted to 3. Moreover, the Ke in [9] is less than 1 ×10⁵ /M.
As to `CN(C)CCCNC(=O)c1cc(NC(=O)c2cc(NC(=O)c3nc(NC=O)cn3C)cn2CCCN)cn1C`, the outcome in [24], in test [25], in [26], in test [27] and in [28] was Active. Besides, the Ke in test [2] stood at 2.3 ×10⁶ /M; in test [8] it was 1.3 ×10⁸ /M; in [9], 2.7 ×10⁶ /M. Further, the ΔTm in the test with Nucleic Acid [3] stood at 0 °C; in the test with Nucleic Acid [4] it was 7 °C; in the test on Nucleic Acid [5] it was 26 °C; with Nucleic Acid [7], 0 °C.
For `CN(C)CCCNC(=O)c1cc(NC(=O)c2cc(NC(=O)c3nc(NC=O)cn3C)cn2C)cn1C`, the outcome in test [24] was Active. The figures for the Ke in test [15], in test [16] and in test [29] were 1.2 ×10⁷ /M, 9.4 ×10⁴ /M and 8.8 ×10⁴ /M, respectively. Further, the ΔTm in the test on Nucleic Acid [4] worked out at 3 °C; in the test on Nucleic Acid [5], 11 °C; in the test on Nucleic Acid [7], 2 °C.
Turning to `CN(C)CCCNC(=O)c1cc(NC(=O)c2nc(NC(=O)c3cc(NC=O)cn3C)cn2C)cn1C`, the outcome in test [19], in [21] and in test [22] was Active. The Selectivity ratio in [20] was found to be 3. For the same compound, the ΔTm in the test on Nucleic Acid [4] was determined as 0 °C; in the test on Nucleic Acid [7] it was 3 °C. In test [9], the Ke was 2 ×10⁵ /M.
